# Calls of active or inactive are those of the source. The rule behind the calls is not given here.
# Experiments:
# [1] = test system: Neutrophil; experiment: Inhibition of PMA-stimulated superoxide production in human neutrophils assessed as respiratory burst; type: functional, cell-based
# [2] = test system: Leishmania donovani; experiment: Antiprotozoal activity against Leishmania donovani MHOM/ET/67/L82 after 72 hrs by fluorimetry; type: functional, organism-based; conditions: MHOM/ET/67/L82, 72 h
# [3] = test system: Saccharomyces cerevisiae; experiment: Inhibition of yeast FTase in presence of farnesyl pyrophosphate
# [4] = test system: Plasmodium falciparum; experiment: Antimalarial activity against chloroquine- and pyrimethamine-resistant Plasmodium falciparum K1 assessed as [3H]-hypoxanthine incorporation after 48 hrs by liquid scintillation counting; type: functional, organism-based
# [5] = test system: Trypanosoma brucei rhodesiense; experiment: Antiparasitic activity against bloodstream form of Trypanosoma brucei rhodesiense STIB 900 after 72 hrs by microplate reader assay; type: functional, organism-based; conditions: STIB 900, 72 h
# [6] = test system: Trypanosoma cruzi; experiment: Antiparasitic activity against intracellular amastigotes of Trypanosoma cruzi Tulahuen C2C4 expressing LacZ gene infected in rat L6 cells after 96 hrs by photometrically; type: functional, organism-based; conditions: Tulahuen C2C4, L6, 96 h
# [7] = test system: L6; experiment: Cytotoxicity against rat L6 cells after 72 hrs by alamar blue assay; type: cell-based; conditions: L6, 72 h
# [8] = target: T1, Phospholipase A2 (Apis mellifera) (UniProt P00630); experiment: Inhibition of Apis mellifera venom PLA2 by colorimetric bioassay
# T1 sequence (whole entry): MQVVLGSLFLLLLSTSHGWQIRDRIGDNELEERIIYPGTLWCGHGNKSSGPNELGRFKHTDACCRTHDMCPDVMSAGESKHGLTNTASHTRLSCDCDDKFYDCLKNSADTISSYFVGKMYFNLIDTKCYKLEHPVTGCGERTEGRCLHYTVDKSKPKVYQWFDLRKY
SMILES,inhibition [1],IC50 [2],inhibition [3],IC50 [4],IC50 [5],IC50 [6],IC50 [7],inhibition [8]
Cn1cncc1C1=C(c2c[nH]c3ccccc23)C(=O)NC1=O,inactive,–,–,–,–,–,–,–
CCCCCCCCCCCCCCCCOP(=O)([O-])OCC[N+](C)(C)C [MILTEFOSINE],–,0.52 µM,–,–,–,–,–,–
NCCCCNCCCNC(=O)C(=O)c1c[nH]c2ccccc12 [DIDEMNIDINE A],inactive,> 180 µM,inactive,41 µM,59 µM,130 µM,24 µM,inactive
O=C1NC(=O)C(c2c[nH]c3ccccc23)=C1c1cnc[nH]1,inactive,–,–,–,–,–,–,–
NCCCCNCCCNC(=O)C(=O)c1c[nH]c2cc(Br)ccc12 [DIDEMNIDINE B],inactive,> 160 µM,inactive,15 µM,44 µM,82 µM,25 µM,inactive
CC(C)(C)OC(=O)NCCCCNCCCNC(=O)C(=O)c1c[nH]c2ccccc12,inactive,> 190 µM,inactive,32 µM,34 µM,88 µM,73 µM,inactive
COc1cc([C@@H]2c3cc4c(cc3[C@H](O)[C@H]3COC(=O)[C@H]23)OCO4)cc(OC)c1OC [PODOFILOX],–,–,–,–,–,–,0.01 µM,–
O=C1NC(=O)C(c2c[nH]c3cc(Br)ccc23)=C1c1cnc[nH]1,inactive,–,–,–,–,–,–,–
Cn1cncc1C1=C(c2c[nH]c3cc(Br)ccc23)C(=O)NC1=O,inactive,–,–,–,–,–,–,–
O=C(Cn1ccnc1[N+](=O)[O-])NCc1ccccc1 [BENZNIDAZOLE],–,–,–,–,–,1.35 µM,–,–
CC(C)(C)OC(=O)NCCCCNCCCNC(=O)C(=O)c1c[nH]c2cc(Br)ccc12,inactive,> 160 µM,inactive,8.4 µM,9.9 µM,28 µM,25 µM,inactive

# From ChEMBL document CHEMBL1772933, “Didemnidines A and B, indole spermidine alkaloids from the New Zealand ascidian Didemnum sp” (J Nat Prod, 2011)
